Assay results from patent publication US4510140A, “Therapeutically effective ω-(4-(2-pyridyl)-piperazino)-alkanoylanilides” (priority 1981, dated 1985).
Read-outs that look alike come from different tables or passages of the source.

Key:
[1] = LD50 determined in the mouse (C. S. Weil method); design: unit not given here; conditions: in vivo
Description: Accordingly, the present invention also features pharmaceutical compositions comprising a pharmaceutically effective amount of a compound having the structural formula (I) as above-defined, or a pharmaceutically acceptable salt thereof, in admixture with conventional pharmaceutically acceptable dileunt or carrier. Suitable such carriers and unit dosage amounts will be apparent to those skilled in this art. Compare, for example, Remington's Pharmaceutical Sciences, 4th Edition (1970). The LD50 of the alkanoylanilides according to the invention was determined in the mouse, both in C. S. Weil, following the method describedBiometrics, 8, 249 (1952). The results obtained were as follows, with the designating for the active compounds corresponding to those set forth in the following specific examples: […]

[2] = tested on: passive cutaneous anaphylaxis; assay: PCA Test: passive cutaneous anaphylaxis induced in the rat with homologous antibodies (Goose and Blair); inhibition of spot areas; format: in vivo; conditions: read-out: PCA Test - ED50 (inhibition of spot areas)
Method: In order to evaluate the antianaphylactic activity of the subject novel compounds, the method of Goose and Blair was followed, in which passive cutaneous anaphylaxis was induced in the rat with homologous antibodies [Immunology, 16, 749 (1969)]. Female albino rats were immunized intramuscularly with egg albumin and intraperitoneally with Hemophylus pertussis vaccine.
Twelve days after treatment, the animals were bled and the sera thus obtained were injected intradermally into another group of rats. Twenty-four hours later, the animals were challenged with an i.v. solution of ovoalbumin and Evans blue dye, and sacrificed after 30 minutes. The test drugs were administered by different routes of administration and at different times before the challenge. Inhibition of spot areas (ED50) was determined.

[3] = tested on: bronchospasm induced by histamine; assay: Antibronchospastic activity (Konzett and Rossler): inhibition of bronchospasm induced in anaesthetized guinea-pig by histamine; format: in vivo; conditions: Cavia porcellus, iv, 1 min, read-out: ED75 (inhibition of histamine-induced bronchospasm)
Method: The antibronchospastic activity was determined according to the method of Konzett and Rossler [Arch. exp. Path. Pharmakol., 195, 71 (1940)], determining the inhibition of bronchospasm induced in anaesthetized guinea-pig by histamine. For this purpose, the bronchospasms were induced by administering intravenously to the animals 0.5-2.5 μg/Kg of hystamine. Inhibition (ED75) was determined one minute after the injection of the drug under test, and the results obtained are reported in the following Table III: […]

[4] = anaesthetized guinea-pig, i.v., histamine 0.5-2.5 μg/Kg i.v., one minute after injection of the drug

| Structure (SMILES) | LD50 ([1]; po, os) | LD50 ([1]; ip) | ED50 ([2]; Rattus norvegicus, po) [µmol/kg] | ED75 [3] [µmol/kg] | ED50 ([2]; Rattus norvegicus, ip) [µmol/kg] | ED50 ([2]; po, rat, os) [µmol/kg] | ED75 [3, 4] [µmol/kg] | ED50 ([2]; rat, ip) [µmol/kg] |
| --- | --- | --- | --- | --- | --- | --- | --- | --- |
| COc1cccc(N2CCN(CCC(=O)Nc3ccccc3[N+](=O)[O-])CC2)n1 [compound 34] | > 7.1 |  |  |  |  |  |  |  |
| O=C(CCN1CCN(c2ccccn2)CC1)Nc1ccc(Cl)cc1 [compound 35] | 0.96 | 0.62 | 39 | 2.27 |  |  |  |  |
| Nc1cccc(NC(=O)CCN2CCN(c3ccccn3)CC2)c1 [compound 23] | 0.85 | 0.9 | 170 | 0.61 |  |  |  |  |
| O=C(CCN1CCN(c2ccccn2)CC1)Nc1ccc(NC(=O)Nc2ccccc2)cc1 [compound 8] | > 6.7 | > 2.25 |  |  |  |  |  |  |
| CC(=O)c1ccc(NC(=O)CCN2CCN(c3ccccn3)CC2)cc1 [compound 13] | 1.5 | 0.48 |  | 0.02 | 104 |  |  |  |
| CNC(=O)Nc1ccc(NC(=O)CCN2CCN(c3ccccn3)CC2)cc1 [compound 28] | > 6.5 | > 2.15 |  |  |  | 73 | 0.29 |  |
| CC(=O)c1ccccc1NC(=O)CCN1CCN(c2ccccn2)CC1 [compound 39] | > 6.91 | 2.3 | 73 | 0.89 |  |  |  |  |
| Cc1cc(C)c(C)c(NC(=O)CN2CCN(c3ccccn3)CC2)c1C [compound 2] |  | 0.65 |  |  | 212 |  |  |  |
| O=C(CCN1CCN(c2ccccn2)CC1)Nc1ccc([N+](=O)[O-])cc1 [compound 6] | 0.81 | 0.47 |  | 0.94 | 27 |  |  |  |
| CCC(=O)Nc1ccc(NC(=O)CCN2CCN(c3ccccn3)CC2)cc1 [compound 11] | 1.53 | 1.05 |  | 0.23 | 160 |  |  |  |
| Cc1cc(C)c(C)c(NC(=O)CCN2CCN(c3ccccn3)CC2)c1C [compound 15] |  | 0.57 | 26 | 1.56 | 19 |  |  |  |
| Cc1cccc(C)c1NC(=O)CN1CCN(c2ccccn2)CC1 [compound 1] |  | 0.9 |  |  | 337 |  |  |  |
| CC(=O)c1cccc(NC(=O)CCN2CCN(c3ccccn3)CC2)c1 [compound 40] | 1.11 | 0.68 | 73 | 0.2 |  |  |  |  |
| O=C(CCN1CCN(c2ccccn2)CC1)Nc1ccc(O)cc1 [compound 20] | 5.2 | > 2.5 |  |  |  | 170 | 0.49 | 120 |
| CC1CN(c2ccccn2)CCN1CCC(=O)Nc1ccc(N)cc1 (stereo not shown) [compound 24] | 2.97 | 1.18 | 39 | 0.59 |  |  |  |  |
| O=C(CCN1CCN(c2ccccn2)CC1)Nc1ccccc1 [compound 16] | 1.35 | 1.16 | 61 | 1.93 | 64 |  |  |  |
| O=C(CCN1CCN(c2ccccn2)CC1)Nc1cccc([N+](=O)[O-])c1 [compound 4] | 2.07 | 0.42 | 68 | 0.37 | 56 |  |  |  |
| CCOc1ccc(NC(=O)CCN2CCN(c3ccccn3)CC2)cc1 [compound 19] | 0.92 | 0.69 | 54 | 0.14 |  |  |  |  |
| O=C(CCN1CCN(c2ccccn2)CC1)Nc1cccc(C(F)(F)F)c1 [compound 37] | 1.17 | 0.56 |  |  |  |  |  |  |
| O=C(CCN1CCN(c2ccccn2)CC1)Nc1ccccc1[N+](=O)[O-] [compound 29] | 3.7 | 2.08 |  | 0.58 |  |  |  |  |

| Structure (SMILES) | LD50 ([1]; po, os) | LD50 ([1]; ip) | ED50 ([2]; Rattus norvegicus, po) [µmol/kg] | ED75 [3] [µmol/kg] | ED50 ([2]; Rattus norvegicus, ip) [µmol/kg] | ED50 ([2]; po, rat, os) [µmol/kg] | ED75 [3, 4] [µmol/kg] | ED50 ([2]; rat, ip) [µmol/kg] |
| --- | --- | --- | --- | --- | --- | --- | --- | --- |
| O=C(CCN1CCN(c2ccccn2)CC1)Nc1ccccc1Cl [compound 33] | 2.64 | 1.29 | 47 | 1.12 | 151 |  |  |  |
| Cc1cccc(C)c1NC(=O)CCN1CCN(c2ccccn2)CC1 [compound 18] |  | 0.8 | 13 | 1.57 | 81 |  |  |  |
| CC1CN(c2ccccn2)CCN1CCC(=O)Nc1ccc([N+](=O)[O-])cc1 (stereo not shown) [compound 30] | 1.2 | 0.42 | 230 | 1.75 |  |  |  |  |
| CCOC(=O)C(=O)Nc1ccc(NC(=O)CCN2CCN(c3ccccn3)CC2)cc1 [compound 12] | > 7.05 | > 2.35 |  |  |  | 180 | 0.23 | 130 |
| CSc1ccc(NC(=O)CCN2CCN(c3ccccn3)CC2)cc1 [compound 42] | > 8.4 |  |  |  |  |  |  |  |
| O=C(CCN1CCN(c2ccccn2)CC1)Nc1cc([N+](=O)[O-])cc([N+](=O)[O-])c1 [compound 32] | 1.57 |  |  | 2.4 |  |  |  |  |
| CC(O)c1ccc(NC(=O)CCN2CCN(c3ccccn3)CC2)cc1 (stereo not shown) [compound 14] | 5.97 | 3.25 | 106 | 0.48 | 32 |  |  |  |
| N#Cc1ccc(NC(=O)CCN2CCN(c3ccccn3)CC2)cc1 [compound 43] | 0.62 | 0.39 |  |  |  |  |  |  |
| COc1cccc(N2CCN(CCC(=O)Nc3ccc(N)cc3)CC2)n1 [compound 25] | 1.6 | 0.53 | 55 | 0.4 | 110 |  |  |  |
| CC(=O)c1ccc(OCc2ccccc2)c(NC(=O)CCN2CCN(c3ccccn3)CC2)c1 [compound 5] | 1.21 | 0.91 |  | 3.89 | 89 |  |  |  |
| Nc1ccccc1NC(=O)CCN1CCN(c2ccccn2)CC1 [compound 22] | 2.08 | 3.2 | 100 | 1.63 |  |  |  |  |
| COc1cccc(N2CCN(CCC(=O)Nc3ccc([N+](=O)[O-])cc3)CC2)n1 [compound 31] | 4.39 |  | 130 |  |  |  |  |  |
| O=C(CCN1CCN(c2ccccn2)CC1)Nc1c(Cl)cccc1Cl [compound 36] | 1.24 | 0.8 | 29 | 0.4 |  |  |  |  |
| Nc1ccc(NC(=O)CCN2CCN(c3ccccn3)CC2)cc1 [compound 7] | 1.29 | 1.11 | 74 | 0.02 | 27 |  |  |  |
| Cc1ccccc1NC(=O)CCN1CCN(c2ccccn2)CC1 [compound 17] | 1.58 | 1.01 | 67 | 0.47 |  |  |  |  |
| COc1cccc(N2CCN(CCC(=O)Nc3ccccc3N)CC2)n1 [compound 38] | 0.67 | 0.37 | 44 |  |  |  |  |  |
| CC(=O)Nc1ccc(NC(=O)CCN2CCN(c3ccccn3)CC2)cc1 [compound 27] | > 6.81 |  |  |  |  | 92 | 0.97 | 120 |
| CCOC(=O)c1ccc(NC(=O)CCN2CCN(c3ccccn3)CC2)cc1 [compound 41] | 0.92 | 0.66 | 28 | 0.17 | 220 |  |  |  |
| COc1ccc(NC(=O)CCN2CCN(c3ccccn3)CC2)cc1 [compound 3] | 1.16 | 0.71 |  | 0.24 | 19 |  |  |  |
| O=C(CCN1CCN(c2ccccn2)CC1)Nc1ccc(O)c([N+](=O)[O-])c1 [compound 21] | 3.74 | 2.38 | 160 | 1.1 | 270 |  |  |  |
